Results as given in PubChem BioAssay (NCI).
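1) Cells in 96-well plates. 2) Compound, 48 h, 5 concentrations. 3) Linear interpolation between surrounding doses. 4) Unreached endpoint = highest concentration. Here, GI50 denotes the concentration required for 50% inhibition of growth. The concentration for full growth arrest is given as TGI.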

How the values were obtained:
Assay in all cases: inhibition of tumour cell growth, NCI panel, 48 h
[1] = tested on: COLO 205 colon
[2] = tested on: RXF 393 renal
[3] = tested on: SNB-19 CNS
[4] = tested on: SW-620 colon
[5] = tested on: NCI/ADR-RES ovarian
[6] = tested on: LOX IMVI melanoma
[7] = tested on: M14 melanoma
[8] = tested on: DU-145 prostate
[9] = tested on: CCRF-CEM leukemia
[10] = tested on: HT29 colon
[11] = tested on: ACHN renal
[12] = tested on: SNB-75 CNS
[13] = tested on: SK-MEL-5 melanoma
[14] = tested on: SF-268 CNS
[15] = tested on: SF-295 CNS
[16] = tested on: U251 CNS
[17] = tested on: SK-MEL-28 melanoma
[18] = tested on: SK-MEL-2 melanoma
[19] = tested on: UACC-62 melanoma
[20] = tested on: K-562 leukemia
[21] = tested on: NCI-H522 lung
[22] = tested on: MDA-MB-231 breast
[23] = tested on: OVCAR-8 ovarian
[24] = tested on: UO-31 renal
[25] = tested on: TK-10 renal
[26] = tested on: HOP-92 NSCLC
[27] = tested on: SK-OV-3 ovarian
[28] = tested on: HL-60(TB) leukemia
[29] = tested on: MCF7 breast
[30] = tested on: T-47D breast
[31] = tested on: OVCAR-4 ovarian
[32] = tested on: 786-0 renal
[33] = tested on: CAKI-1 renal
[34] = tested on: MDA-MB-435
[35] = tested on: NCI-H460 lung
[36] = tested on: HCT-15 colon
[37] = tested on: A549 NSCLC
[38] = tested on: HCT-116 colon
[39] = tested on: SN12C renal
[40] = tested on: MALME-3M melanoma
[41] = tested on: OVCAR-3 ovarian
[42] = tested on: HCC-2998 colon
[43] = tested on: IGROV1 ovarian
[44] = tested on: EKVX NSCLC
[45] = tested on: NCI-H226 lung
[46] = tested on: HS 578T breast
[47] = tested on: BT-549 breast
[48] = tested on: NCI-H23 lung
[49] = tested on: OVCAR-5 ovarian
[50] = tested on: PC-3 prostate
[51] = tested on: SF-539 CNS
[52] = tested on: KM12 colon
[53] = tested on: RPMI-8226 leukemia
[54] = tested on: UACC-257 melanoma
[55] = tested on: MOLT-4 leukemia
[56] = tested on: A498 renal
[57] = tested on: SR leukemia
[58] = tested on: HOP-62 NSCLC

## CC(=C(c1ccc(OCCN(C)C)cc1)c1ccc(OCCN(C)C)cc1)c1ccc(Cl)cc1
[1]
  GI50: 0.621 µM
  TGI: 1.27 µM
[2]
  GI50: 0.706 µM
  TGI: 2.08 µM
[3]
  GI50: 1.16 µM
  TGI: 4.36 µM
[4]
  GI50: 0.569 µM
  TGI: 1.17 µM
[5]
  GI50: 0.951 µM
  TGI: 2.95 µM
[6]
  GI50: 0.542 µM
  TGI: 1.03 µM
[7]
  GI50: 0.614 µM
  TGI: 1.24 µM
[8]
  GI50: 1.38 µM
  TGI: 4.9 µM
[9]
  GI50: 0.657 µM
  TGI: 1.84 µM
[10]
  GI50: 0.615 µM
  TGI: 1.49 µM
[11]
  GI50: 0.709 µM
  TGI: 1.57 µM
[12]
  GI50: 2.58 µM
  TGI: 7.6 µM
[13]
  GI50: 0.597 µM
  TGI: 1.09 µM
[14]
  GI50: 1.6 µM
  TGI: 6.21 µM
[15]
  GI50: 0.653 µM
  TGI: 1.38 µM
[16]
  GI50: 0.631 µM
  TGI: 1.46 µM
[17]
  GI50: 0.605 µM
  TGI: 1.13 µM
[18]
  GI50: 2.1 µM
  TGI: 4.82 µM
[19]
  GI50: 0.576 µM
  TGI: 1.13 µM
[20]
  GI50: 0.77 µM
  TGI: 7.71 µM
[21]
  GI50: 0.756 µM
  TGI: 2.1 µM
[22]
  GI50: 0.687 µM
  TGI: 1.56 µM
[23]
  GI50: 1.17 µM
  TGI: 4.36 µM
[24]
  GI50: 0.847 µM
  TGI: 2.65 µM
[25]
  GI50: 4.77 µM
  TGI: 9.68 µM
[26]
  GI50: 0.74 µM
  TGI: 3.04 µM
[27]
  GI50: 4.8 µM
  TGI: 9.53 µM
[28]
  GI50: 0.708 µM
  TGI: 1.64 µM
[29]
  GI50: 0.508 µM
  TGI: 1.02 µM
[30]
  GI50: 0.633 µM
  TGI: 1.41 µM
[31]
  GI50: 1.01 µM
  TGI: 3.1 µM
[32]
  GI50: 0.591 µM
  TGI: 1.16 µM
[33]
  GI50: 0.652 µM
  TGI: 1.69 µM
[34]
  GI50: 0.577 µM
  TGI: 1.12 µM
[35]
  GI50: 0.756 µM
  TGI: 1.76 µM
[36]
  GI50: 0.625 µM
  TGI: 1.36 µM
[37]
  GI50: 1.04 µM
  TGI: 4.14 µM
[38]
  GI50: 0.544 µM
  TGI: 1.11 µM
[39]
  GI50: 1.92 µM
  TGI: 5.74 µM
[40]
  GI50: 0.57 µM
  TGI: 1.08 µM
[41]
  GI50: 0.756 µM
  TGI: 2.01 µM
[42]
  GI50: 0.617 µM
  TGI: 1.31 µM
[43]
  GI50: 0.826 µM
  TGI: 2.22 µM
[44]
  GI50: 1.66 µM
  TGI: 6.11 µM
[45]
  GI50: 4.44 µM
  TGI: 10 µM
[46]
  GI50: 1.37 µM
  TGI: 5.14 µM
[47]
  GI50: 3.17 µM
  TGI: 7.78 µM
[48]
  GI50: 2.6 µM
  TGI: 7.17 µM
[49]
  GI50: 1.34 µM
  TGI: 5.26 µM
[50]
  GI50: 0.932 µM
  TGI: 3.26 µM
[51]
  GI50: 0.566 µM
  TGI: 1.1 µM
[52]
  GI50: 1.45 µM
  TGI: 3.56 µM
[53]
  GI50: 0.651 µM
  TGI: 1.58 µM
[54]
  GI50: 0.632 µM
  TGI: 1.27 µM
[55]
  GI50: 0.713 µM
  TGI: 1.81 µM
[56]
  GI50: 3.2 µM
  TGI: 7.81 µM
[57]
  GI50: 0.638 µM
  TGI: 3.29 µM
[58]
  GI50: 3.3 µM
  TGI: 8.16 µM
